Measurements: US20250288704A1, “CXCR4-LIGANDS FOR DIAGNOSTIC AND THERAPEUTIC USE AND PRECURSORS THEREOF” (priority 2021, published 2025)
Each block holds one compound with its values, some of them ahead of it. Non-standard residues stand in square brackets, D forms with d. Residues, ends and D or L forms follow the SMILES beside them. Groups on a side chain read outwards from the residue. *: point of attachment. DOTA = O=C(O)CN1CCN(CC(=O)O)CCN(CC(=O)*)CCN(CC(=O)O)CC1; dTyr(3-I) = N[C@H](Cc1ccc(O)c(I)c1)C(=O)O; 2Nal = N[C@@H](Cc1ccc2ccccc2c1)C(=O)O; dNMeOrn = CN[C@H](CCCN)C(=O)O; 4Amb = NCc1ccc(C(=O)O)cc1; 4Abz = Nc1ccc(C(=O)O)cc1; dDap = NC[C@@H](N)C(=O)O

Tests used:
[1] = Biodistribution in Jurkat tumor-bearing CB-17 SCID mice; type: in vivo; design: tissue to tissue ratio at 1 h / tissue to tissue ratio / tissue to tissue ratio at 48 h: reference not given here; details: CB-17 SCID, mouse, in vivo, iv, total radioactivity
Outline: (§1)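 Radioligand (125I, 177Lu, 99mTc, 18F or 68Ga label; roughly 0.5-20 MBq, 0.02-0.20 nmol) was injected intravenously via tail vein. Hosts were CB17-SCID mice with subcutaneous Jurkat tumors of 5-8 mm, 4-10 weeks post-inoculation. Dissected organs were weighed and counted in a γ-counter.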

[2] = tested on: Jurkat tumor-bearing CB-17 SCID mice; test: as above; type: in vivo; design: tissue to tissue ratio at 1 h / tissue to tissue ratio / tissue to tissue ratio at 48 h: reference not given here; details: mouse, in vivo
Outline: as §1

CXCR4 = CXCR4 (Homo sapiens, UniProt P61073); test: Determination of IC50: competition with 125I-Fc-131 on CXCR4-positive Jurkat cells; type: binding; design: CXCR4-positive Jurkat T lymphocyte cells were grown in Gibco's RPMI 1640 GlutaMAX medium; endogenous in cells; host or cells: Jurkat T lymphocyte cells (whole cells in suspension, 400.000 per tube); details: unlabeled or cold (natGa/natLu) compound vs 125I-Fc-131, Jurkat cells; read-out: IC50;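 note: test compound at 10^−5 to 10^−11 M competed for 2 h at 8 °C with the radioligand on 400,000 cells per well, bound versus free activity measured by γ-counting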
[3] = tested on: CXCR4-expressing Chem_1 cells; test: Determination of internalization, dual tracer with 125I-Fc-131; type: cell-based; details: for Cell-bound [%] / Internalized [%]: of total cellular activity
Outline: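 Receptor blockade used AMD3100 (1 mM stock) versus medium-treated wells, triplicate per time point, in Chem_1 cells cultured at 37 °C in DMEM-F12/10% FBS. Activity of supernatant, surface-bound and internalized (1 M NaOH) fractions measured by γ-counter, corrected for non-specific uptake and normalised to standard ligand.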

[4] = Octanol/PBS partition coefficient (logD7.4); type: physicochemical; details: n-octanol/PBS pH 7.4, radiolabeled compound
Procedure: The tubes were vortexed at maximum speed for 3 min to ensure equilibrium before centrifugation at 15.000×g for 5 min on a Biofuge 15 from Heraeus Holding GmbH (Osterode, Germany). An aliquot of 100 μL of each fraction was measured in the γ-counter and the log D7.4 calculated as follows: […]

CXCR4, sequence (P61073 whole entry): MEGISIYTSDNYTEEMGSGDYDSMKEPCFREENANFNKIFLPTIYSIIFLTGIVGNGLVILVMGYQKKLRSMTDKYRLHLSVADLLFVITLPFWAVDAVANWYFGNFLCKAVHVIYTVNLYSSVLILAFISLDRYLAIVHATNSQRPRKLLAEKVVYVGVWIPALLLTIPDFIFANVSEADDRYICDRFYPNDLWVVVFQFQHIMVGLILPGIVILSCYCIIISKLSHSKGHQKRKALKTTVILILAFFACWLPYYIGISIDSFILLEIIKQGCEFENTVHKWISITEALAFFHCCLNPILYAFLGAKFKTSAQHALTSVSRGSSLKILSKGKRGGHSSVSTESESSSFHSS

Compound: C[C@@H](NC(=O)[C@@H](CCCNC(=N)N)NC(=O)[C@@H](CN)NC(=O)CN1CCN(CC(=O)O)CCN(CC(=O)O)CCN(CC(=O)O)CC1)C(=O)Nc1ccc(C(=O)NCCC[C@@H]2C(=O)N[C@@H](CCCNC(=N)N)C(=O)N[C@@H](Cc3ccc4ccccc4c3)C(=O)NCC(=O)N[C@H](Cc3ccc(O)c(I)c3)C(=O)N2C)cc1 [CXCR4-DOTA-4 [Lu]] (cyclo([dTyr(3-I)][dNMeOrn]([4Abz-dA-dR-dDap-DOTA])R[2Nal]G))
tissue to tissue ratio [1]: 156
tissue to tissue ratio at 1 h [1]: 3.6
tissue to tissue ratio at 48 h [1]: 362
tissue uptake at 1 h ([1]; Tumor activity 1 h p.i.): 6.19 %ID/g
tissue uptake at 6 h ([1]; Tumor activity 6 h p.i.): 7.78 %ID/g
tissue uptake at 48 h ([1]; Tumor activity 48 h p.i.): 7.23 %ID/g
tissue uptake at 1 h ([1]; female, % iD/g Blood): 1.72 %ID/g
tissue uptake at 6 h ([1]; female, % iD/g Blood): 0.05 %ID/g
tissue uptake at 48 h ([1]; female, % iD/g Blood): 0.02 %ID/g
tissue uptake at 1 h ([1]; female, % iD/g Bone): 1.07 %ID/g
tissue uptake at 6 h ([1]; female, % iD/g Bone): 0.57 %ID/g
tissue uptake at 48 h ([1]; female, % iD/g Bone): 1.47 %ID/g
tissue uptake at 1 h ([1]; female, % iD/g Heart): 1.13 %ID/g
tissue uptake at 6 h ([1]; female, % iD/g Heart): 0.22 %ID/g
tissue uptake at 48 h ([1]; female, % iD/g Heart): 0.21 %ID/g
tissue uptake at 1 h ([1]; female, % iD/g Intestine): 0.87 %ID/g
tissue uptake at 6 h ([1]; female, % iD/g Intestine): 0.82 %ID/g
tissue uptake at 48 h ([1]; female, % iD/g Intestine): 0.28 %ID/g
tissue uptake at 1 h ([1]; female, % iD/g Kidney): 14.4 %ID/g
tissue uptake at 6 h ([1]; female, % iD/g Kidney): 11.3 %ID/g
tissue uptake at 48 h ([1]; female, % iD/g Kidney): 5.31 %ID/g
tissue uptake at 1 h ([1]; female, % iD/g Liver): 19.2 %ID/g
tissue uptake at 6 h ([1]; female, % iD/g Liver): 20.5 %ID/g
tissue uptake at 48 h ([1]; female, % iD/g Liver): 21.7 %ID/g
tissue uptake at 1 h ([1]; female, % iD/g Lung): 3.69 %ID/g
tissue uptake at 6 h ([1]; female, % iD/g Lung): 0.6 %ID/g
tissue uptake at 48 h ([1]; female, % iD/g Lung): 0.47 %ID/g
tissue uptake at 1 h ([1]; female, % iD/g Muscle): 0.3 %ID/g
tissue uptake at 6 h ([1]; female, % iD/g Muscle): 0.07 %ID/g
tissue uptake at 48 h ([1]; female, % iD/g Muscle): 0.05 %ID/g
tissue uptake at 1 h ([1]; female, % iD/g Pancreas): 0.52 %ID/g
tissue uptake at 6 h ([1]; female, % iD/g Pancreas): 0.16 %ID/g
tissue uptake at 48 h ([1]; female, % iD/g Pancreas): 0.24 %ID/g
tissue uptake at 1 h ([1]; female, % iD/g Spleen): 4.57 %ID/g
tissue uptake at 6 h ([1]; female, % iD/g Spleen): 2.68 %ID/g
tissue uptake at 48 h ([1]; female, % iD/g Spleen): 3.63 %ID/g
tissue uptake at 1 h ([1]; female, % iD/g Stomach): 1.35 %ID/g
tissue uptake at 6 h ([1]; female, % iD/g Stomach): 0.41 %ID/g
tissue uptake at 48 h ([1]; female, % iD/g Stomach): 0.23 %ID/g
tissue uptake at 1 h ([1]; female, % iD/g Tumor): 6.19 %ID/g
tissue uptake at 6 h ([1]; female, % iD/g Tumor): 7.78 %ID/g
tissue uptake at 48 h ([1]; female, % iD/g Tumor): 7.23 %ID/g
Calculated tumor retention 6 h compared to the 1 h-value [2]: 126%
Calculated tumor retention 48 h compared to the 1 h-value [2]: 117%

IC50 (CXCR4): 5.05 ± 1.75 nM
logD7.4 [4]: −3.41 ± 0.05 (6)
Compound: C[C@@H](NC(=O)[C@@H](CCCNC(=N)N)NC(=O)[C@@H](CN)NC(=O)CN1CCN(CC(=O)O)CCN(CC(=O)O)CCN(CC(=O)O)CC1)C(=O)NCc1ccc(C(=O)NCCC[C@@H]2C(=O)N[C@@H](CCCNC(=N)N)C(=O)N[C@@H](Cc3ccc4ccccc4c3)C(=O)NCC(=O)N[C@H](Cc3ccc(O)cc3)C(=O)N2C)cc1 [CXCR4-DOTA-1 [Lu]] (cyclo([dY][dNMeOrn]([4Amb-dA-dR-dDap-DOTA])R[2Nal]G))
Internalized in relation to 125I-Fc-131 [%] ([3]; 15 min): 78.3 ± 6.93%
Cell-bound [%] ([3]; 15 min): 4.27 ± 0.38%
Internalized [%] ([3]; 15 min): 2.61 ± 0.20%
Internalized in relation to 125I-Fc-131 [%] ([3]; 30 min): 95.0 ± 9.39%
Cell-bound [%] ([3]; 30 min): 4.43 ± 0.08%
Internalized [%] ([3]; 30 min): 3.28 ± 0.27%
Internalized in relation to 125I-Fc-131 [%] ([3]; 60 min): 109 ± 24.6%
Cell-bound [%] ([3]; 60 min): 6.02 ± 0.67%
Internalized [%] ([3]; 60 min): 5.04 ± 0.92%
Internalized in relation to 125I-Fc-131 [%] ([3]; 120 min): 133 ± 7.31%
Internalization [% Fc-131] 2 h ([3]; 2 h, 177Lu-labeled): 133 % Fc-131
Cell-bound [%] ([3]; 120 min): 4.97 ± 0.31%
Internalized [%] ([3]; 120 min): 7.08 ± 0.22%
